Assay results taken from US6274715A, “Tricyclic erythromycin derivatives” (priority 1997, dated 2001).
In brackets after ≈: the same amount, converted by molar mass.

Assays:
Assay type in all cases: cell-based
[1] = system: ESCHERICHIA COLI SS; test: In vitro antibacterial activity, MIC, BHI agar dilution; conditions: E. coli SS, unit assumed
[2] = system: PSEUDOMONAS AERUGINOSA K799/WT; test: as above; conditions: P. aeruginosa K799/WT, unit assumed
[3] = system: STREPTOCOCCUS PYOGENES EES61; test: as above; conditions: S. pyogenes EES61, unit assumed
[4] = system: STAPHYLOCOCCUS AUREUS A5177; test: as above; conditions: S. aureus A5177, unit assumed
[5] = system: KLEBSIELLA PNEUMONIAE ATCC 8045; test: as above; conditions: K. pneumoniae ATCC 8045, unit assumed
[6] = system: PSEUDOMONAS AERUGINOSA K799/61; test: as above; conditions: P. aeruginosa K799/61, unit assumed
[7] = system: PROVIDENCIA STUARTII CMX 640; conditions: P. stuartii CMX 640; BHI agar; unit assumed
[8] = system: PSEUDOMONAS AERUGINOSA BMH10; test: In vitro antibacterial activity, MIC, BHI agar dilution; conditions: P. aeruginosa BMH10, unit assumed
[9] = system: STREPTOCOCCUS PYOGENES 930; test: as above; conditions: S. pyogenes 930, unit assumed
[10] = system: STAPHYLOCOCCUS AUREUS NCTC10649M; test: as above; conditions: S. aureus NCTC10649M, unit assumed
[11] = system: ESCHERICHIA COLI DC-2; test: as above; conditions: E. coli DC-2, unit assumed
[12] = system: STAPHYLOCOCCUS AUREUS A-5278; test: as above; conditions: S. aureus A-5278, unit assumed
[13] = system: M[…] ATCC 9341; test: as above; conditions: M. luteus ATCC 9341, unit assumed
In short: (§1)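 BHI agar dilution, 12 plates; inoculum 1:100 (1:10 slow-growing strains), Steers replicator; 35-37° C, 20-24 h. MIC = lowest conc. with no growth/slight haze/sparse colonies vs growth control, visual read. Erythromycin A reference plate.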

[14] = system: EN[…] ATCC 8043; test: as above; conditions: E. faecium ATCC 8043, unit assumed
In short: as §1

[15] = system: M[…] ATCC 4698; test: as above; conditions: M. luteus ATCC 4698, unit assumed
In short: as §1

[16] = system: STR[…] 508; test: as above; conditions: S. agalactiae CMX 508, unit assumed
In short: as §1

[17] = system: STAPHYLOCOCCUS AUREUS CMX 553; test: as above; conditions: S. aureus CMX 553, unit assumed
[18] = system: STREPTOCOCCUS PYOGENES PIU 2548; test: as above; conditions: S. pyogenes PIU 2548, unit assumed
[19] = system: STAPHYLOCOCCUS EPIDERMIDIS 3519; conditions: S. epidermidis 3519; BHI agar; unit assumed
[20] = system: STAPHYLOCOCCUS AUREUS ATCC 6538P; test: In vitro antibacterial activity, MIC, BHI agar dilution; conditions: S. aureus ATCC 6538P, 35-37° C., 20 to 24 hours, unit assumed
[21] = system: PSEUDOMONAS AERUGINOSA 5007; test: as above; conditions: P. aeruginosa 5007, unit assumed
[22] = system: STAPHYLOCOCCUS AUREUS CMX 642A; test: as above; conditions: S. aureus CMX 642A, unit assumed
[23] = system: CANDIDA ALBICANS CCH 442; test: as above; conditions: C. albicans CCH 442, unit assumed
[24] = system: ENTEROBACTER AEROGENES ATCC 13048; test: as above; conditions: E. aerogenes ATCC 13048, unit assumed
[25] = system: STAPHYLOCOCCUS AUREUS 1775; test: as above; conditions: S. aureus 1775, unit assumed
[26] = system: PSEUDOMONAS AERUGINOSA DPHD-2862; test: as above; conditions: P. aeruginosa DPHD-2862, unit assumed
[27] = system: ESCHERICHIA COLI H560; test: as above; conditions: E. coli H560, unit assumed
[28] = system: PSEUDOMONAS AERUGINOSA DPHD-5263; test: as above; conditions: P. aeruginosa DPHD-5263, unit assumed
[29] = system: PSEUDOMONAS CEPACIA 296I; test: as above; conditions: P. cepacia 296I, unit assumed
[30] = system: ACINETOBACTER CALCOACETICUS CMX 669; test: as above; conditions: A. calcoaceticus CMX 669, unit assumed
[31] = system: ESCHERICHIA COLI JUHL; conditions: E. coli JUHL; BHI agar; unit assumed
[32] = system: MYCOBACTERIUM SMEGMATIS ATCC 114; test: In vitro antibacterial activity, MIC, BHI agar dilution; conditions: M. smegmatis ATCC 114, unit assumed
[33] = system: ESCHERICHIA COLI KNK 437; conditions: E. coli KNK 437; BHI agar; unit assumed
[34] = system: STREPTOCOCCUS BOVIS A-5169; test: In vitro antibacterial activity, MIC, BHI agar dilution; conditions: S. bovis A-5169, unit assumed

| SMILES | MIC [1] [µg/mL] | MIC [2] [µg/mL] | MIC [3] [µg/mL] | MIC [4] [µg/mL] | MIC [5] [µg/mL] | MIC [6] [µg/mL] | MIC [7] [µg/mL] | MIC [8] [µg/mL] | MIC [9] [µg/mL] | MIC [11] [µg/mL] | MIC [12] [µg/mL] | MIC [13] [µg/mL] | MIC [14] [µg/mL] | MIC [15] [µg/mL] | MIC [16] [µg/mL] | MIC [17] [µg/mL] | MIC [18] [µg/mL] | MIC [19] [µg/mL] | MIC [21] [µg/mL] | MIC [22] [µg/mL] | also measured |
| --- | --- | --- | --- | --- | --- | --- | --- | --- | --- | --- | --- | --- | --- | --- | --- | --- | --- | --- | --- | --- | --- |
| CC[C@H]1OC(=O)[C@H](C)C(=O)[C@H](C)[C@@H](O[C@@H]2O[C@H](C)C[C@H](N(C)C)[C@H]2O)[C@](C)(OC)C[C@@H](C)C2=N[C@@H]3CCCC[C@@H]3N3C(=O)O[C@@]1(C)[C@H]3[C@H]2C [Example 13] | 0.39 (≈ 0.564 µM) | > 100 | 0.02 (≈ 0.0289 µM) | 0.78 (≈ 1.13 µM) | 100 (≈ 145 µM) | 3.1 (≈ 4.48 µM) | > 100 | > 100 | > 100 | 100 (≈ 145 µM) | > 100 | 0.2 (≈ 0.289 µM) | 0.1 (≈ 0.145 µM) | 0.78 (≈ 1.13 µM) | 0.02 (≈ 0.0289 µM) | 0.78 (≈ 1.13 µM) | 0.2 (≈ 0.289 µM) | 0.78 (≈ 1.13 µM) | > 100 | 0.78 (≈ 1.13 µM) | MIC [10]: 0.78 µg/mL (≈ 1.13 µM); MIC [20]: 0.78 µg/mL (≈ 1.13 µM); MIC [23]: 3.1 µg/mL (≈ 4.48 µM); MIC [24]: 100 µg/mL (≈ 145 µM); MIC [25]: > 100 µg/mL; MIC [26]: > 100 µg/mL; MIC [27]: 50 µg/mL (≈ 72.3 µM); MIC [28]: > 100 µg/mL; MIC [29]: > 100 µg/mL; MIC [30]: > 100 µg/mL; MIC [31]: 50 µg/mL (≈ 72.3 µM); MIC [32]: 0.39 µg/mL (≈ 0.564 µM); MIC [33]: 100 µg/mL (≈ 145 µM) |
| CC[C@H]1OC(=O)[C@H](C)C(=O)[C@H](C)[C@@H](O[C@@H]2O[C@H](C)C[C@H](N(C)C)[C@H]2O)[C@](C)(OC)C[C@@H](C)C2=N[C@@H]3CN(C(=O)OCc4ccccc4)C[C@@H]3N3C(=O)O[C@@]1(C)[C@H]3[C@H]2C [Example 20] | 3.1 (≈ 3.81 µM) | > 100 | 0.005 (≈ 0.00615 µM) | 0.78 (≈ 0.959 µM) | > 100 | 6.2 (≈ 7.63 µM) | > 100 | > 100 | > 100 | > 100 | > 100 | 0.39 (≈ 0.48 µM) | 0.39 (≈ 0.48 µM) | 0.78 (≈ 0.959 µM) | 0.1 (≈ 0.123 µM) | 1.56 (≈ 1.92 µM) | 0.78 (≈ 0.959 µM) | 0.78 (≈ 0.959 µM) | > 100 | 1.56 (≈ 1.92 µM) | MIC [23]: > 100 µg/mL; MIC [34]: 0.1 µg/mL (≈ 0.123 µM); MIC [24]: > 100 µg/mL; MIC [25]: > 100 µg/mL; MIC [26]: > 100 µg/mL; MIC [27]: 100 µg/mL (≈ 123 µM); MIC [28]: > 100 µg/mL; MIC [29]: > 100 µg/mL; MIC [30]: 100 µg/mL (≈ 123 µM); MIC [31]: > 100 µg/mL; MIC [32]: 3.1 µg/mL (≈ 3.81 µM); MIC [33]: > 100 µg/mL |
